# Measurements published in patent US20230330059A1, “3-PHENYL-2H-CHROMENE DERIVATIVE AND PHARMACEUTICAL COMPOSITION FOR PREVENTING OR TREATING ALZHEIMER'S, CONTAINING SAME” (NEUROBIONET, INC., priority 2020, published 2023).
# Legend:
# [1] = system: PSEN1 gene expression in PSEN1-overexpressed HEK293 cells; experiment: Inhibition of dementia gene PSEN1 expression (qRT-PCR); format: cell-based; settings: 0.1 and 1 µM, 24 hours, FIG. 17
# Procedure: HEK293 cells and PSEN1-overexpressed HEK293 cells were seeded at a density of 1x10^6 cells/well into 6-well plates containing a DMEM medium and stabilized overnight, following by treating the cells with or without various concentrations (0.1 and 1 µM) of the sample (SPA1413) for 24 hours. Thereafter, RNA was extracted from the cells, using TRIzol reagent. Reverse transcription was performed using the GoScript™ reverse transcription system according to the manufacturer’s instructions. A qRT-PCR reaction was performed in a volume of 20 µl using the standard SYBR Green PCR kit and Roche Light® Instrument according to the standard protocol. Relative gene expression levels were calculated by the 2^-ΔΔCt method.
# [2] = system: oligomeric Aβ proteins in cortex and hippocampus of 5xFAD mice; experiment: Western blotting of oligomeric Aβ proteins in brain tissue; format: in vivo, mouse; settings: 10 mg/kg, FIG. 28
# Procedure: (§1) 5xFAD mice were purchased from Jackson Lab and bred in and in through mating with C57B16/SJL F1 females, based on the information provided by the supplier. Through genotyping, the mice were divided into groups of 7-9 members, including normal groups (WT) and genetically modified groups (5xFAD): 4.5-month-old 5xFAD mice (Tg) and age-matched controls (WT). To the WT or Tg groups, a vehicle or SPA1413 was orally administered at a dose of 10 mg/kg once a day for 1 month. To test whether SPA1413 has a therapeutic effect on Alzheimer’s disease, the mice in 5 groups (WT-vehicle; WT-SPA1413 5xFAD-vehicle; 5xFAD-SPA1413; and 5xFAD-donepezil) were evaluated for cognitive ability.
# After the animal behavior experiments, the brain tissues of the experimental animals were recovered, the brain tissues in the cortex and hippocampus regions of one hemisphere were separated, frozen, and stored until use. The tissues were thawed on the test day and treated with a lysis solvent, followed by protein isolation and quantitation. […]
# The images of the western blots analyzed for oligomeric Aβ proteins (60-70 kDa) in the cortex and hippocampus of 5xFAD-vehicle and 5xFAD-SPA1413 group animals are presented in FIG. 28, and the band intensity was analyzed and quantified using the image j program.
# [3] = system: 5xFAD mice; experiment: Y-maze test; format: in vivo, mouse; settings: 10 mg/kg orally once a day for 1 month, vs 5xFAD-saline group, FIG. 21
# Procedure: The experiment was conducted with 5X-FAD transgenic mice having Alzheimer’s disease introduced therein. The 5X FAD mouse is an animal model of Alzheimer’s disease with all the human AD-linked mutations: Swedish (K670N/ […]), Florida (1716V) and London (V7171) in APP (695) and M146L in Presenilin 1
# as §1
# Memory impairment was evaluated using the Y-shaped maze test. For the Y-shaped maze test, a Y-shaped arm was installed in a water tank. […] After a random number was assigned to each arm, the arm number in which the animal entered was recorded. Memory was assessed by the animal’s ability to remember the route it had taken and to try to navigate the new route.
# [4] = system: HEK293 cells; experiment: MTT cytotoxicity in HEK293 cells; format: cell-based; settings: HEK293 cells, 1, 5 and 10 µM, 24 hours; FIG. 16
# Procedure: HEK293 cells and the HEK293 cells overexpressing the dementia gene PSEN1 were seeded at a density of 2x10^5 cells/well into 96-well plates containing a DMEM medium and stabilized overnight, following by treating the cells with various concentrations (1, 5, and 10 µM) of the sample (SPA1413) for 24 hours. After removal of the culture medium, a 0.5 mg/ml MTT solution was added in an amount of 100 µl to each well and incubated at 37° C. for at least one hour in an incubator. The MTT was removed and 200 µl of DMSO was added to each well to dissolve the formazan. Absorbance was read at 540 nm on an ELISA reader to determine whether or the sample was toxic to the cells.
# [5] = system: primary microglial cells treated with beta amyloid oligomer (AB1-40); experiment: Cell viability of primary microglia treated with beta amyloid oligomer; format: cell-based, ICR mice; settings: 5 µM for 1 hour, then AB1-40 10 µM 24 hours; FIG. 15
# Procedure: Mouse-derived microglia (BV2 cells) purchased from the Korean Cell Line Bank were seeded at a density of 4x10^5 cells/well into 96-well plates, each well containing DMEM (Dulbecco’s Modified Eagle’s Media) supplemented with 10% FBS and 1% antibiotics, and stabilized by incubation for 24 hours. Thereafter, the cells were treated for 24 hours with various concentrations (0.5, 1, and 5 µM) of daidzein, o-desmethylangolensin (O-DMA), S-equal, SPA1413, and SPA1426. After removal of the medium, the cells were treated 0.5 mg/ml 3-(4,5-dimethylthiazol-2-yl)-2,5-diphenyltetrazolium bromide (MTT) solution 1 hour. The reduced formazan was dissolved in 150 µl of dimethyl sulfoxide (DMSO) and absorbance was read at 570 nm in a microspectrophotometer to determine cell viability. Cell viability of the cells treated with each sample was determined relative to that of the untreated normal control (Control), which was set to be 100%, and the results are depicted in FIGS. 3 and 4 (upper).
# Primary microglial cells isolated from the brain of 1-year-old ICR mice were seeded at a density of 2x10^5 cells/well into 96-well plates and stabilized for 24 hours. Thereafter, the cells were treated with 5 µM of daidzein, S-equal, SPA1413, or SPA1426 for 1 hour and then with beta amyloid oligomer (AB1-40, 10 µM) for 24 hours at 37° C. Cell viability was assayed in the same manner as in Experimental Example 2.
# [6] = system: amyloid plaques in cortex and hippocampus of 5xFAD mice; experiment: Immunohistochemical assay of amyloid plaques (6E10 antibody, Thioflavin S); format: in vivo, mouse; settings: 10 mg/kg, FIGS. 24 and 25
# Procedure: as §1
# After the animal behavior experiments, the brain tissues of the experimental animals were recovered, sectioned, and then stained with Thioflavin S for immunostaining chemistry using the 6E10 antibody.
# Immunohistochemical staining is a technique for detecting specific proteins within tissues by staining the same. […] The stained tissues were observed through a fluorescence microscope, and the images are depicted in FIG. 23.
# The quantitative analysis results of the images of the tissues stained with the 6E10 antibody and Thioflavin S are presented in FIGS. 24 and 25. Five experimental animals were selected from each group and analyzed. […]
smiles,measurement,setting,value
"Oc1ccc(C2=Cc3ccc(O)cc3OC2)cc1 [SPA1413, 3-(4-Hydroxyphenyl)-2H-chromen-7-ol]",PSEN1 gene expression,[1],inhibited the upregulated expression of PSEN1 gene
same,level of oligomeric Aβ proteins (60-70 kDa) in the cortex and hippocampus,[2],significantly reduce
same,total arm entries,[3],no significant difference
same,cell viability (MTT),[4],the same as or almost similar to the normal control group
same,cell viability after beta amyloid oligomer treatment,[5],significantly increased in cell viability
same,amyloid plaques in the cortex and hippocampus,[6],significantly reduced
